Columns and labels:
A549 = test: Cytotoxicity against human A549 cells by MTT assay; type: functional, cell-based
HeLa = test: Cytotoxicity against human HeLa cells by MTT assay; type: functional, cell-based

Structure (SMILES) | IC50 (A549) | IC50 (HeLa)
CCCCCCCOc1cc2c(cc1[C@@]1(C(=O)OC)C[C@@H]3C=C(CC)CN(Cc4c1[nH]c1ccccc41)C3)[C@@]13CCN4CC=C[C@@](CC)([C@@H](OC(C)=O)[C@](O)(COC(C)=O)[C@@H]1N2C)[C@H]43 | 0.331 µM | 0.317 µM
CCC1=C[C@@H]2CN(C1)Cc1c([nH]c3ccccc13)[C@@](C(=O)OC)(c1cc3c(cc1OC)N(C)[C@H]1[C@@](O)(COC(C)=O)[C@H](OC(C)=O)[C@]4(CC)C=CCN5CC[C@]31[C@@H]54)C2 | 0.007 µM | 0.005 µM
CCC1=C[C@@H]2CN(C1)Cc1c([nH]c3ccccc13)[C@@](C(=O)OC)(c1cc3c(cc1OC)N(C)[C@H]1[C@@](O)(C(=O)OC)[C@H](OC(C)=O)[C@]4(CC)C=CCN5CC[C@]31[C@@H]54)C2 [VINORELBINE] | 0.01 µM | 0.009 µM
CCC1=C[C@@H]2CN(C1)Cc1c([nH]c3ccccc13)[C@@](C(=O)OC)(c1cc3c(cc1OCCOC(C)=O)N(C)[C@H]1[C@@](O)(COC(C)=O)[C@H](OC(C)=O)[C@]4(CC)C=CCN5CC[C@]31[C@@H]54)C2 | 0.083 µM | 0.077 µM
CCC1=C[C@@H]2CN(C1)Cc1c([nH]c3ccccc13)[C@@](C(=O)OC)(c1cc3c(cc1OC(C)=O)N(C)[C@H]1[C@@](O)(COC(C)=O)[C@H](OC(C)=O)[C@]4(CC)C=CCN5CC[C@]31[C@@H]54)C2 | 0.056 µM | 0.049 µM
CCC1=C[C@@H]2CN(C1)Cc1c([nH]c3ccccc13)[C@@](C(=O)OC)(c1cc3c(cc1OC(C)C)N(C)[C@H]1[C@@](O)(COC(C)=O)[C@H](OC(C)=O)[C@]4(CC)C=CCN5CC[C@]31[C@@H]54)C2 | 0.236 µM | 0.209 µM
CCCOc1cc2c(cc1[C@@]1(C(=O)OC)C[C@@H]3C=C(CC)CN(Cc4c1[nH]c1ccccc41)C3)[C@@]13CCN4CC=C[C@@](CC)([C@@H](OC(C)=O)[C@](O)(COC(C)=O)[C@@H]1N2C)[C@H]43 | 0.051 µM | 0.045 µM
CCOc1cc2c(cc1[C@@]1(C(=O)OC)C[C@@H]3C=C(CC)CN(Cc4c1[nH]c1ccccc41)C3)[C@@]13CCN4CC=C[C@@](CC)([C@@H](OC(C)=O)[C@](O)(COC(C)=O)[C@@H]1N2C)[C@H]43 | 0.013 µM | 0.011 µM
CCCCOc1cc2c(cc1[C@@]1(C(=O)OC)C[C@@H]3C=C(CC)CN(Cc4c1[nH]c1ccccc41)C3)[C@@]13CCN4CC=C[C@@](CC)([C@@H](OC(C)=O)[C@](O)(COC(C)=O)[C@@H]1N2C)[C@H]43 | 0.094 µM | 0.089 µM

— ChEMBL document CHEMBL2021858, “The effect of vindoline C-16 substituents on the biomimetic coupling reaction: synthesis and cytotoxicity evaluation of the corresponding vinorelbine analogues” (Bioorg Med Chem Lett, 2012)
